Experimental data: patent US7968591B2, “1,3-disubstituted 4-methyl-1H-pyrrole-2-carboxamides and their use in medicaments” (Gruenenthal GmbH, priority 2006, dated 2011)

System: batrachotoxin (BTX) binding site of the sodium channel
Test: Affinity for the batrachotoxin (BTX) binding site of the sodium channel
Conditions: rat cerebrocortex synaptosomes, [3H]-Batrachotoxinin A20α benzoate 10 nM

Going from Cc1ccc(-c2c(C)cn(Cc3ccccc3)c2C(=O)NCCN2CCCC2)cc1 [Example 74, 1-benzyl-4-methyl-3-p-tolyl-1H-pyrrole-2-carboxylic acid (2-pyrrolidin-1-ylethyl)-amide] to Cc1cn(Cc2ccccc2)c(C(=O)NCCN2CCCC2)c1-c1ccccc1 [Example 77, 1-benzyl-4-methyl-3-phenyl-1H-pyrrole-2-carboxylic acid (2-pyrrolidin-1-ylethyl)-amide], the “BTX (Na+ channel) (% inhibition at 10 μM)” value falls from 101% to 91%.

Going from COc1ccc(CN2CCN(C(=O)c3c(-c4ccco4)c(C)cn3Cc3ccc(F)cc3)CC2)cc1F [Example 75, [1-(4-fluorobenzyl)-3-furan-2-yl-4-methyl-1H-pyrrol-2-yl]-[4-(3-fluoro-4-methoxybenzyl)-piperazin-1-yl]-methanone] to Cc1cn(Cc2ccccc2)c(C(=O)NC(C)c2ccc3ccccc3c2)c1-c1ccco1 (stereo not drawn) [Example 81, 1-benzyl-3-furan-2-yl-4-methyl-1H-pyrrole-2-carboxylic acid (1-naphthalen-2-ylethyl)-amide], the “BTX (Na+ channel) (% inhibition at 10 μM)” value falls from 89% to 35%.

Compared with COc1ccc(-c2c(C)cn(C)c2C(=O)NCc2ccc(OC)cc2OC)cc1 [Example 76, 3-(4-methoxyphenyl)-1,4-dimethyl-1H-pyrrole-2-carboxylic acid 2,4-dimethoxybenzylamide], Cc1cn(C)c(C(=O)NCCCN2CCCCC2C)c1-c1ccc(Cl)cc1 (stereo not drawn) [Example 78, 3-(4-chlorophenyl)-1,4-dimethyl-1H-pyrrole-2-carboxylic acid [3-(2-methylpiperidin-1-yl)-propyl]-amide] is higher in “BTX (Na+ channel) (% inhibition at 10 μM)” value: 41% for the first, 86% for the second.
